Assay results from patent publication US20150148377A1, “Quinoline Derivatives” (NOVARTIS AG, priority 2011, published 2015).

Columns and labels:
[1] = molecular target: T1, PI3K alpha (Homo sapiens, UniProt P42336); assay: Enzymatic PI3K alpha isoform inhibition (lipid kinase activity, Kinase-Glo); assay type: biochemical; details: enzymatic assay
T1 construct: His tag (C); made in house; host or cells: baculovirus; Tn5 (Trichoplusia ni) or TiniPro insect cells
Outline: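 Lipid kinase reaction with 10 nM PI3Kα, 1 μM ATP and 10 μg/mL phosphatidylinositol in pH 7.5 Tris with MgCl2, NaCl, CHAPS and DTT, run 60 min at room temperature. Remaining ATP read by Kinase-Glo luminescence. IC50 from 8-point 4-parameter logistic fits.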

[2] = molecular target: T2, PI3K delta (Homo sapiens, UniProt O00329); assay: Enzymatic PI3K delta isoform inhibition (lipid kinase activity, Kinase-Glo); assay type: biochemical; details: enzymatic assay
T2 construct: for the full-length p110-d subunit are generated and fused by overlapping PCR; His tag (C); made in house; host or cells: baculovirus; Tn5 (Trichoplusia ni) or TiniPro insect cells
Outline: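 Preferred format: PI3Kδ 10 nM with PI 10 μg/mL and ATP 1 μM in Tris 10 mM pH 7.5, MgCl2 3 mM, NaCl 50 mM, CHAPS, DTT; 60 min at RT, 8 concentrations. ATP depletion read by Kinase-Glo luminescence; IC50 from four-parameter logistic fit.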

T1 sequence (P42336 with tags, fused parts or gaps limits assumed): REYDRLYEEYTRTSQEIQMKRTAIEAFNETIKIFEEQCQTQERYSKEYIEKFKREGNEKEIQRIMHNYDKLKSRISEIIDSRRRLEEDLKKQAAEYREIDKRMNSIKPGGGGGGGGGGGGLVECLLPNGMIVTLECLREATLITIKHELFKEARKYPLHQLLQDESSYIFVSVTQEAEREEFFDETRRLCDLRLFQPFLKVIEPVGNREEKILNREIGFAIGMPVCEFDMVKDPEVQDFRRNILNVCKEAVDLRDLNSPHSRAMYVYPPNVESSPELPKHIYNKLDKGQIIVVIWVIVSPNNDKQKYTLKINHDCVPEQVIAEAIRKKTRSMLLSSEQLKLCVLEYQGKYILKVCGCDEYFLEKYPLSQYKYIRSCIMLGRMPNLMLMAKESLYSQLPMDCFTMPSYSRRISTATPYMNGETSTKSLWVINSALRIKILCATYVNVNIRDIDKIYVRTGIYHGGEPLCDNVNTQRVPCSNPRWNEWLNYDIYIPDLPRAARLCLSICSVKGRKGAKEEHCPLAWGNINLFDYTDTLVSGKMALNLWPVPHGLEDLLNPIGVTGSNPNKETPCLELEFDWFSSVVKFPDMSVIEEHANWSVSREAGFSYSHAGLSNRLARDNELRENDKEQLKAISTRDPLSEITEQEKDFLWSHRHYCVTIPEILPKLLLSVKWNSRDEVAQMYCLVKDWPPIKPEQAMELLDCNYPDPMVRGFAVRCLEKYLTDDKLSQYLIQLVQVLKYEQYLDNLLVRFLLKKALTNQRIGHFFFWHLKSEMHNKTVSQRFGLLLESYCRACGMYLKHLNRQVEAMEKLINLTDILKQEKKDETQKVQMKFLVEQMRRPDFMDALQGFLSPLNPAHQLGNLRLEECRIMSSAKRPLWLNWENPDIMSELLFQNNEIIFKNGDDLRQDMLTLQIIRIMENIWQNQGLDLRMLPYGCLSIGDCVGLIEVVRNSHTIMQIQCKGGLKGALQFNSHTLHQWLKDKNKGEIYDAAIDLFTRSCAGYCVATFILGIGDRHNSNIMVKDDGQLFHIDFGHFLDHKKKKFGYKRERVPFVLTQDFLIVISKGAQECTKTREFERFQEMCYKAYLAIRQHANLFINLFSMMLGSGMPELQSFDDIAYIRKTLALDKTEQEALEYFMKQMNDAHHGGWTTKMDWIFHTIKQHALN
T2 sequence (O00329 with tags, fused parts or gaps limits assumed): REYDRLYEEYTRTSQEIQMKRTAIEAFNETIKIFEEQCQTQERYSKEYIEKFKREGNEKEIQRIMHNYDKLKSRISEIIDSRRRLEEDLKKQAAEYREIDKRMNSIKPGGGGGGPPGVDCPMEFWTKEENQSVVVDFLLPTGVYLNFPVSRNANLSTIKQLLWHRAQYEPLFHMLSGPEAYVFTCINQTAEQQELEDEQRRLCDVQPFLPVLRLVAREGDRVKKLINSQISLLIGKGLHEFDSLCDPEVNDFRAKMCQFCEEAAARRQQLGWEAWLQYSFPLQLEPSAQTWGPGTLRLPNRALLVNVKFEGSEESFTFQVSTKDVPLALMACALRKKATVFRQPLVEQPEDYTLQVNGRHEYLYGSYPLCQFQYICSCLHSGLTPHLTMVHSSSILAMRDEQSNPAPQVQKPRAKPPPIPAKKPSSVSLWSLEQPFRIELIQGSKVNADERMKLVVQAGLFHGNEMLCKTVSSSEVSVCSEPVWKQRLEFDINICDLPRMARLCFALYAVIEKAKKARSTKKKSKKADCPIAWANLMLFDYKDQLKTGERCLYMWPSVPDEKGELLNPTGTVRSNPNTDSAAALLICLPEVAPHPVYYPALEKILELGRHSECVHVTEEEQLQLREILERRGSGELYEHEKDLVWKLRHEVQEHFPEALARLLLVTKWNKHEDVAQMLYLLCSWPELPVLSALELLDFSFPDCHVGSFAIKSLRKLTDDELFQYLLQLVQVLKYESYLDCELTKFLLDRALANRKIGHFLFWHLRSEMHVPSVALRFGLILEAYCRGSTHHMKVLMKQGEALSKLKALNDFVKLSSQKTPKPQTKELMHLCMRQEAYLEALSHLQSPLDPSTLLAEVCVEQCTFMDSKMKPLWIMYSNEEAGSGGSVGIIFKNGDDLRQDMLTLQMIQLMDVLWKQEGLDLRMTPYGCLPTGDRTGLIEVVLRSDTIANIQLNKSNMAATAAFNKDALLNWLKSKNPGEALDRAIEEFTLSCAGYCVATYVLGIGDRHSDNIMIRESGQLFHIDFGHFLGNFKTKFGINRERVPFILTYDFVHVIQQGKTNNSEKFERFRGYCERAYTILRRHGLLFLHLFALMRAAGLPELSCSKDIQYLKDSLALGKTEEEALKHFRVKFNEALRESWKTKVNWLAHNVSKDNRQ

Structure (SMILES)	IC50 [1]	IC50 [2]
COc1ncc(-c2ccnc3ccc(O[C@H]4CCN(C(=O)[C@@H]5CCN(C(C)=O)C5)C4)cc23)cc1C(F)F [Example A24, 1-((R)-3-{(S)-3-[4-(5-Difluoromethyl-6-methoxy-pyridin-3-yl)-quinolin-6-yloxy]-pyrrolidine-1-carbonyl}-pyrrolidin-1-yl)-ethanone]	67 nM	12 nM
CCC(=O)N1CC[C@H](Oc2ccc3nccc(-c4cnc(S(C)(=O)=O)c(C)c4)c3c2)C1 [Example A25, 1-{(S)-3-[4-(6-Methanesulfonyl-5-methyl-pyridin-3-yl)-quinolin-6-yloxy]-pyrrolidin-1-yl}-propan-1-one]	821 nM	12 nM
COc1ncc(-c2ccnc3ccc(O[C@H]4CCN(C(=O)C5CCS(=O)(=O)CC5)C4)cc23)cc1C(F)F [Example A6, {(S)-3-[4-(5-Difluoromethyl-6-methoxy-pyridin-3-yl)-quinolin-6-yloxy]-pyrrolidin-1-yl}-(1,1-dioxo-hexahydro-1lambda*6*-thiopyran-4-yl)-methanone]	53 nM	4 nM
COc1ncc(-c2ccnc3ccc(O[C@H]4CCN(C(=O)C5CCS(=O)(=O)CC5)C4)cc23)cc1Cl [Example A1, {(S)-3-[4-(5-Chloro-6-methoxy-pyridin-3-yl)-quinolin-6-yloxy]-pyrrolidin-1-yl}-(1,1-dioxo-hexahydro-1lambda*6*-thiopyran-4-yl)-methanone]	77 nM	< 3 nM
COc1ncc(-c2ccnc3ccc(O[C@H]4CCN(C(=O)C5CCS(=O)(=O)CC5)C4)cc23)cc1C [Example A15, (1,1-Dioxo-hexahydro-1lambda*6*-thiopyran-4-yl)-{(S)-3-[4-(6-methoxy-5-methyl-pyridin-3-yl)-quinolin-6-yloxy]-pyrrolidin-1-yl}-methanone]	186 nM	7 nM
COc1ncc(-c2ccnc3ccc(O[C@H]4CCN(C(=O)[C@@H]5CCN(C(C)=O)C5)C4)cc23)cc1C [Example A10, 1-((R)-3-{(S)-3-[4-(6-Methoxy-5-methyl-pyridin-3-yl)-quinolin-6-yloxy]-pyrrolidine-1-carbonyl}-pyrrolidin-1-yl)-ethanone]	1360 nM	5 nM

Now from value to compound:

IC50 [1]	IC50 [2]	Structure (SMILES)
5680 nM	332 nM	Cc1cc(-c2ccnc3cc(F)c(O[C@H]4CCN(C(=O)C5CCOCC5)C4)cc23)cnc1S(C)(=O)=O [Example C2, {(S)-3-[7-Fluoro-4-(6-methanesulfonyl-5-methyl-pyridin-3-yl)-quinolin-6-yloxy]-pyrrolidin-1-yl}-(tetrahydro-pyran-4-yl)-methanone]
498 nM	5 nM	COc1ncc(-c2ccnc3ccc(O[C@H]4CCN(C(=O)C5CCS(=O)(=O)CC5)C4)c(C)c23)cc1C [Example B3, (1,1-Dioxo-hexahydro-1lambda*6*-thiopyran-4-yl)-{(S)-3-[4-(6-methoxy-5-methyl-pyridin-3-yl)-5-methyl-quinolin-6-yloxy]-pyrrolidin-1-yl}-methanone]
3110 nM	302 nM	COc1ncc(-c2ccnc3cc(F)c(O[C@H]4CCN(C(=O)C5CCS(=O)(=O)CC5)C4)cc23)cc1C [Example C1, (1,1-Dioxo-hexahydro-1lambda*6*-thiopyran-4-yl)-{(S)-3-[7-fluoro-4-(6-methoxy-5-methyl-pyridin-3-yl)-quinolin-6-yloxy]-pyrrolidin-1-yl}-methanone]
63 nM	5 nM	COc1ncc(-c2ccnc3ccc(O[C@H]4CCN(C(=O)[C@@H]5CCN(C(C)=O)C5)C4)c(C)c23)cc1C(F)F [Example B1, 1-((R)-3-{(S)-3-[4-(5-Difluoromethyl-6-methoxy-pyridin-3-yl)-5-methylquinolin-6-yloxy]-pyrrolidine-1-carbonyl}-pyrrolidin-1-yl)-ethanone]
